Source: patent publication US20250019385A1, “SPIROCYCLIC ANNULATED 2-AMINO-3-CYANO THIOPHENES AND DERIVATIVES FOR THE TREATMENT OF CANCER” (Boehringer Ingelheim International GmbH, priority 2023, published 2025)

Columns and labels:
[1] = test system: Ba/F3 cells KRAS G12C; assay: Ba/F3 proliferation assay (KRAS G12C); format: cell-based; conditions: Mus musculus, BaF3, 72 h, AlamarBlue viability
Method: (§1) Ba/F3 cells are ordered from DSMZ (ACC300, Lot17) and grown in RPMI-1640 (ATCC 30-2001)+10% FCS+10 ng/mL IL-3 at 37° C. in 5% […] atmosphere. Plasmids containing KRASG12 mutants (i.e. […], G12C, G12V) are obtained from GeneScript. To generate KRASG12-dependent Ba/F3 models, Ba/F3 cells are transduced with retroviruses containing vectors that harbor KRASG12 isoforms. Platinum-E cells (Cell Biolabs) are used for retrovirus packaging. Retrovirus is added to Ba/F3 cells. To ensure infection, 4 μg/mL polybrene is added and cells are spinfected. Infection efficiency is confirmed by measuring GFP-positive cells using a cell analyzer. Cells with an infection efficiency of 10% to 20% are further cultivated and puromycin selection with 1 μg/mL is initiated. As a control, parental Ba/F3 cells are used to show selection status. Selection is considered successful when parental Ba/F3 cells cultures died. To evaluate the transforming potential of KRASG12 mutations, the growth medium is no longer supplemented with IL-3. Ba/F3 cells harboring the empty vector are used as a control. Approximately ten days before conducting the experiments, puromycin is left out.
(§2) For proliferation assays, Ba/F3 cells are seeded into 384-well plates at 1.5×1 (M cells/60 μL in growth media (RPMI-1640+10% FCS). Compounds (10 mM stock in DMSO) are added at logarithmic dose series using the ECHO acoustic liquid handler system (Beckman Coulter), normalizing for added DMSO and including DMSO controls. All compound treatments are performed in technical duplicates. For the TO time point measurement, untreated cells are analyzed at the time of compound addition. Treated cells are incubated for 72 h at 37° C. with 5% CO2 and cell viability is measured in the PerkinElmer Envision Multimode Reader using AlamarBlue™ (ThermoFisher) viability stain. Viability (stated as percent of control) is defined as relative fluorescence units RFU of each well divided by the RFU of cells in DMSO controls. IC50 values are determined from viability measurements by non-linear regression using a four-parameter model.

[2] = test system: Ba/F3 cells KRAS G12D; assay: Ba/F3 proliferation assay (KRAS G12D); format: cell-based; conditions: Mus musculus, BaF3, 72 h, AlamarBlue viability
Method: as §1, §2

[3] = Caco-2 assay (permeability and efflux ratio); format: in vitro ADME; conditions: human; for Papp A→B at 90 min, 10 μM: Caco-2 apical to basolateral permeability, pH 7.4, read-out: Caco PappAB; for efflux ratio at 90 min, 10 μM: pH 7.4, Caco-2 efflux ratio PappBA/PappAB, read-out: Caco ER
Method: The assay provides information on the potential of a compound to pass the cell membrane, on the extent of oral absorption as well as on whether the compound is actively transported by uptake and/or efflux transporters. Permeability measurements across polarized, confluent Caco-2 cell monolayers grown on permeable filter supports (Corning, catalog #3391) are used. 10 μM test compound solution in assay buffer (128.13 mM NaCl, 5.36 mM KCl, 1 mM MgSO4, 1.8 mM CaCl2), 4.17 mM NaHCO3, 1.19 mM Na2HPO4, 0.41 mM NaH2PO4, 15 mM 2-[4-(2-hydroxyethyl)piperazin-1-yl]ethanesulfonic acid (HEPES), 20 mM glucose, pH 7.4) was added to the donor compartment of the cell chamber containing a monolayer of Caco-2 cells in between the donor and the receiver compartment. The receiver and donor compartments contain 0.25% bovine serum albumine (BSA) in assay buffer. Passive diffusion and/or active transport of compounds across the monolayer is measured in both apical to basolateral (a-b) and basolateral to apical (b-a) direction. a-b permeability (PappAB) represents drug absorption from the intestine into the blood and b-a permeability (PappBA) drug secretion from the blood back into the intestine via both passive permeability as well as active transport mechanisms mediated by efflux and uptake transporters that are expressed on the Caco-2 cells. After a pre-incubation of 25-30 min at 37° C., at predefined time points (0, 30, 60 and 90 min), samples were taken from the receiver and donor compartment, respectively. Concentrations of test compounds in samples were measured by HPLC/MS/MS, samples from the donor compartment were diluted 1:50 (v:v) with assay buffer, samples from receiver compartment were measured without dilution.
Apparent permeabilities in a-b (PappAB) and b-a (PappBA) directions are calculated according to the formula:
[formula] • Vrec [mL]: buffer volume in receiver compartment • Cdon [μmol/mL]: concentration of test compound in donor compartment at t=0 • ΔCrec: difference between concentrations of test compound in receiver compartment at start and end of incubation time • Δt: Incubation time • Vrec·ΔCrec/Δt [μmol/min]: Amount of compound transferred to receiver compartment per time • A [cm^2]: filter surface
Caco-2 efflux ratios (ER) are calculated as the ratio of PappBA/PappAB.

| IC50 [1] [nM] | IC50 [2] [nM] | Papp A→B at 90 min, 10 μM [3] [×10⁻⁶ cm/s] | efflux ratio at 90 min, 10 μM [3] | SMILES |
| --- | --- | --- | --- | --- |
| 1 | 2 | 8.7 | 5.9 | C[C@H](Oc1nc(-c2noc3c2CCC[C@@]32CCCc3sc(N)c(C#N)c32)nc2c1n(C)c(=O)n2[C@H]1CO[C@@H](C)C1)[C@@H]1CCCN1C [II-5] |
| 1 | 4 | 27 | 0.9 | CO[C@@H]1C[C@@H]([C@H](C)Oc2nc(-c3noc4c3CCC[C@@]43CCCc4sc(N)c(C#N)c43)nc3c2COC[C@]32CCOC2)N(C)C1 [II-11] |
| 2 | 11 | 13 | 4.3 | CO[C@@H]1C[C@@H]([C@H](C)Oc2nc(-c3noc4c3CCC[C@@]43CCCc4sc(N)c(C#N)c43)nc3c2n(C)c(=O)n3[C@@]23COC[C@@H]2C3)N(C)C1 [II-6] |
| 3 | 11 | 3.2 | 15.3 | CO[C@@H]1C[C@@H]([C@H](C)Oc2nc(-c3noc4c3CCC[C@@]43CCCc4sc(N)c(C#N)c43)nc3c2CN(C2COC2)C[C@]32CCOC2)N(C)C1 [II-14] |
| 1 | 3 | 12 | 3.8 | C[C@H](Oc1nc(-c2noc3c2CCC[C@@]32SCCc3sc(N)c(C#N)c32)nc2c1COC[C@]21CCOC1)[C@@H]1CCCN1C [II-16] |
| 61 | 127 | – | – | C[C@H](Oc1nc(-c2noc3c2CCC[C@@]32CCCc3sc(N)c(C#N)c32)nc2c1CN(c1ncccn1)[C@@]21CCOC1)[C@@H]1CCCN1C [II-7b] |
| 3 | 6 | 16 | 3.4 | C[C@H](Oc1nc(-c2noc3c2CCC[C@@]32CCCc3sc(N)c(C#N)c32)nc2c1CN(C1COC1)C[C@]21CCOC1)[C@@H]1CC[C@H](C)N1C [II-17] |
| 31 | 20 | – | – | C[C@H](Oc1nc(-c2noc3c2CCC[C@@]32CCCc3sc(N)c(C#N)c32)nc2c1CCC21CCOC1)[C@@H]1CCCN1C (stereo partly drawn) [II-18] |
| 3 | 9 | – | – | CO[C@H]1CCN(C)[C@@H]1[C@H](C)Oc1nc(-c2noc3c2CCC[C@@]32CCCc3sc(N)c(C#N)c32)nc2c1n(C)c(=O)n2[C@@H]1CCCOC1 [II-3] |
| 10 | 28 | – | – | C[C@H](Oc1nc(-c2noc3c2CCC[C@@]32CCCc3sc(N)c(C#N)c32)nc2c1CN(c1ncccn1)[C@]21CCOC1)[C@@H]1CCCN1C [II-7a] |

Continued, compound first:

| SMILES | IC50 [1] [nM] | IC50 [2] [nM] | Papp A→B at 90 min, 10 μM [3] [×10⁻⁶ cm/s] | efflux ratio at 90 min, 10 μM [3] |
| --- | --- | --- | --- | --- |
| C[C@H](Oc1nc(-c2onc3c2CCC[C@@]32CCCc3sc(N)c(C#N)c32)nc2c1n(C)c(=O)n2[C@H]1CC2CCC1O2)[C@@H]1CCCN1C (stereo partly drawn) [I-17] | 37 | 47 | – | – |
| CO[C@@H]1C[C@@H]([C@H](C)Oc2nc(-c3onc4c3CCC[C@@]43CCCc4sc(N)c(C#N)c43)nc3c2CN(C2COC2)C[C@]32CCOC2)N(C)C1 [I-58] | 4 | 22 | – | – |
| CO[C@@H]1C[C@@H]([C@H](C)Oc2nc(-c3onc4c3CCC[C@@]43CCCc4sc(N)c(C#N)c43)nc3c2n(C)c(=O)n3[C@H]2COC[C@@H](C)C2)N(C)C1 [I-52] | 8 | 28 | 34 | 0.6 |
| CO[C@H]1CCN(C)[C@@H]1[C@H](C)Oc1nc(-c2onc3c2CCC[C@@]32CCCc3sc(N)c(C#N)c32)nc2c1CN(C1COC1)C[C@]21CCOC1 [I-57] | 3 | 11 | 35 | 1.3 |
| C[C@H](Oc1nc(-c2onc3c2CCC[C@@]32CCCc3sc(N)c(C#N)c32)nc2c1N(C)C(=O)CN2[C@@H]1CCOC1)[C@@H]1CCCN1C [I-37] | 265 | 305 | – | – |
| C[C@H](Oc1nc(-c2onc3c2CCC[C@@]32CCCc3sc(N)c(C#N)c32)nc2c1n(C)c(=O)n2[C@H]1CO[C@@H](C)C1)[C@@H]1CC[C@H](C)N1C [I-50] | 3 | 4 | – | – |
| CO[C@H]1CCN(C)[C@@H]1[C@H](C)Oc1nc(-c2onc3c2CCC[C@@]32CCCc3sc(N)c(C#N)c32)nc2c1n(C)c(=O)n2[C@H]1COC[C@@H](C)C1 [I-51] | 5 | 26 | 36 | 0.5 |
| C[C@H](Oc1nc(-c2onc3c2CCC[C@@]32CCCc3sc(N)c(C#N)c32)nc2c1n(C)c(=O)n2[C@H]1CO[C@@H](C)C1)[C@@H]1CCCN1C [I-47] | 1 | 1 | – | – |
| CO[C@H]1CCN(C)[C@@H]1[C@H](C)Oc1nc(-c2onc3c2CCC[C@@]32CCCc3sc(N)c(C#N)c32)nc2c1n(C)c(=O)n2[C@@H]1CCCOC1 [I-6] | 4 | 9 | – | – |
| CO[C@@H]1C[C@@H]([C@H](C)Oc2nc(-c3onc4c3CCC[C@@]43CCCc4sc(N)c(C#N)c43)nc3c2n(C)c(=O)n3[C@@H]2CCCOC2)N(C)C1 [I-14] | 5 | 10 | – | – |
| C[C@H](Oc1nc(-c2onc3c2CCC[C@@]32CCCc3sc(N)c(C#N)c32)nc2c1n(C)c(=O)n2[C@@H]1CC2CCC1O2)[C@@H]1CCCN1C (stereo partly drawn) [I-18] | 109 | 182 | – | – |
| CO[C@H]1C[C@@H](n2c(=O)n(C)c3c(O[C@@H](C)[C@@H]4CCCN4C)nc(-c4onc5c4CCC[C@@]54CCCc5sc(N)c(C#N)c54)nc32)C1 [I-31] | 52 | 37 | – | – |
| CO[C@H]1C[C@H](n2c(=O)n(C)c3c(O[C@@H](C)[C@@H]4CCCN4C)nc(-c4onc5c4CCC[C@@]54CCCc5sc(N)c(C#N)c54)nc32)C1 [I-16] | 288 | 488 | – | – |
| CCn1c(=O)n([C@@H]2CCCOC2)c2nc(-c3onc4c3CCC[C@@]43CCCc4sc(N)c(C#N)c43)nc(OC[C@@]34CCCN3C[C@H](F)C4)c21 [I-33] | 1600 | 3550 | – | – |
| CCn1c(=O)n([C@@H]2CCCOC2)c2nc(-c3onc4c3CCC[C@@]43CCCc4sc(N)c(C#N)c43)nc(OCC3(CN4CCCC4)CC3)c21 [I-35] | 177 | 411 | – | – |
| C[C@H](Oc1nc(-c2onc3c2CCC[C@@]32CCCc3sc(N)c(C#N)c32)nc2c1[nH]c(=O)n2[C@@H]1CCCOC1)[C@@H]1CCCN1C [I-13] | 38 | 141 | – | – |
| CCn1c(=O)n([C@@H]2CCCOC2)c2nc(-c3onc4c3CCC[C@@]43CCCc4sc(N)c(C#N)c43)nc(O[C@@H](C)C34CCCN3CCC4)c21 [I-36] | 31 | 95 | – | – |
| CCn1c(=O)n([C@@H]2CCCOC2)c2nc(-c3onc4c3CCC[C@@]43CCCc4sc(N)c(C#N)c43)nc(OCC34CCCN3CCC4)c21 [I-34] | 1180 | 3020 | – | – |
| C[C@H](Oc1nc(-c2onc3c2CCC[C@@]32CCCc3sc(N)c(C#N)c32)nc2c1n(C)c(=O)n2[C@@H]1CCOC1)[C@@H]1[C@H](F)CCN1C [I-4] | 58 | 145 | – | – |
| C[C@H](Oc1nc(-c2onc3c2CCC[C@@]32CCCc3sc(N)c(C#N)c32)nc2c1n(C)c(=O)n2[C@H]1CCC[C@@H]1O)[C@@H]1CCCN1C [I-19] | 406 | 470 | – | – |
